{"source": "patent US20230048576A1", "about": "“COMPOUNDS FOR THE TREATMENT OF NEUROPATHIC PAIN” (City of Hope, priority 2019, published 2023)", "assay": "Mean group body weight in Taxol model", "format": "in vivo, rat", "protocol": "Neuropathic pain was induced by intraperitoneal administration of Taxol at a dose level of 6 mg/kg on study days 0-6 and 12 mg/kg on study days 7-12. Following injection of Taxol animals experienced pain as was assessed using the von Frey test. The development of neuropathic pain was confirmed by measuring mechanical allodynia (Von Frey test) on study day 13 (for inclusion) and on study day 14 (1 hour and 2 hour post dosing) and 24 hour post first dosing.", "key": {"[1]": {"details": "100 mg/kg PO, Group 4, Baseline"}}, "data": [{"smiles": "CC(C)(Oc1ccc(NC(=O)Nc2ccc(Cc3ccc(NC(=O)Nc4ccc(OC(C)(C)C(=O)O)cc4)c(Cl)c3)cc2Cl)cc1)C(=O)O", "note": "[LR-90, methylene bis[4,4′-(2-chlorophenylureidophenoxyisobutyric acid)]]", "values": [{"measurement": "Mean group body weight", "setting": "25 mg/kg PO, Group 6, Baseline", "value": 223.50, "unit": "g"}, {"measurement": "Mean group body weight (% from baseline)", "setting": "25 mg/kg PO, Group 6, Baseline", "value": 100.00, "unit": "%"}, {"measurement": "Mean group body weight", "setting": "25 mg/kg PO, Group 6, Day 1", "value": 235.00, "unit": "g"}, {"measurement": "Mean group body weight (% from baseline)", "setting": "25 mg/kg PO, Group 6, Day 1", "value": 105.16, "unit": "%"}, {"measurement": "Mean group body weight", "setting": "25 mg/kg PO, Group 6, Day 3", "value": 237.50, "unit": "g"}, {"measurement": "Mean group body weight (% from baseline)", "setting": "25 mg/kg PO, Group 6, Day 3", "value": 106.26, "unit": "%"}, {"measurement": "Mean group body weight", "setting": "25 mg/kg PO, Group 6, Day 5", "value": 255.50, "unit": "g"}, {"measurement": "Mean group body weight (% from baseline)", "setting": "25 mg/kg PO, Group 6, Day 5", "value": 114.32, "unit": "%"}, {"measurement": "Mean group body weight", "setting": "25 mg/kg PO, Group 6, Day 7", "value": 264.30, "unit": "g"}, {"measurement": "Mean group body weight (% from baseline)", "setting": "25 mg/kg PO, Group 6, Day 7", "value": 118.31, "unit": "%"}, {"measurement": "Mean group body weight", "setting": "25 mg/kg PO, Group 6, Day 9", "value": 275.88, "unit": "g"}, {"measurement": "Mean group body weight (% from baseline)", "setting": "25 mg/kg PO, Group 6, Day 9", "value": 123.38, "unit": "%"}, {"measurement": "Mean group body weight", "setting": "25 mg/kg PO, Group 6, Day 11", "value": 282.38, "unit": "g"}, {"measurement": "Mean group body weight (% from baseline)", "setting": "25 mg/kg PO, Group 6, Day 11", "value": 126.30, "unit": "%"}, {"measurement": "Mean group body weight", "setting": "25 mg/kg PO, Group 6, Day 13", "value": 286.75, "unit": "g"}, {"measurement": "Mean group body weight (% from baseline)", "setting": "25 mg/kg PO, Group 6, Day 13", "value": 128.26, "unit": "%"}, {"measurement": "Mean group body weight", "setting": "25 mg/kg PO, Group 6, Day 16", "value": 277.50, "unit": "g"}, {"measurement": "Mean group body weight (% from baseline)", "setting": "25 mg/kg PO, Group 6, Day 16", "value": 124.11, "unit": "%"}, {"measurement": "Mean group body weight", "setting": "25 mg/kg PO, Group 6, Day 20", "value": 277.63, "unit": "g"}, {"measurement": "Mean group body weight (% from baseline)", "setting": "25 mg/kg PO, Group 6, Day 20", "value": 124.18, "unit": "%"}, {"measurement": "Mean group body weight", "setting": "25 mg/kg PO, Group 6, Day 23", "value": 263.63, "unit": "g"}, {"measurement": "Mean group body weight (% from baseline)", "setting": "25 mg/kg PO, Group 6, Day 23", "value": 117.84, "unit": "%"}, {"measurement": "Mean group body weight", "setting": "25 mg/kg PO, Group 6, Day 26", "value": 239.00, "unit": "g"}, {"measurement": "Mean group body weight (% from baseline)", "setting": "25 mg/kg PO, Group 6, Day 26", "value": 108.59, "unit": "%"}, {"measurement": "Mean group body weight", "setting": "50 mg/kg PO, Group 5, Baseline", "value": 225.88, "unit": "g"}, {"measurement": "Mean group body weight (% from baseline)", "setting": "50 mg/kg PO, Group 5, Baseline", "value": 100.00, "unit": "%"}, {"measurement": "Mean group body weight", "setting": "50 mg/kg PO, Group 5, Day 1", "value": 234.38, "unit": "g"}, {"measurement": "Mean group body weight (% from baseline)", "setting": "50 mg/kg PO, Group 5, Day 1", "value": 103.80, "unit": "%"}, {"measurement": "Mean group body weight", "setting": "50 mg/kg PO, Group 5, Day 3", "value": 241.63, "unit": "g"}, {"measurement": "Mean group body weight (% from baseline)", "setting": "50 mg/kg PO, Group 5, Day 3", "value": 106.95, "unit": "%"}, {"measurement": "Mean group body weight", "setting": "50 mg/kg PO, Group 5, Day 5", "value": 257.50, "unit": "g"}, {"measurement": "Mean group body weight (% from baseline)", "setting": "50 mg/kg PO, Group 5, Day 5", "value": 113.97, "unit": "%"}, {"measurement": "Mean group body weight", "setting": "50 mg/kg PO, Group 5, Day 7", "value": 268.63, "unit": "g"}, {"measurement": "Mean group body weight (% from baseline)", "setting": "50 mg/kg PO, Group 5, Day 7", "value": 118.88, "unit": "%"}, {"measurement": "Mean group body weight", "setting": "50 mg/kg PO, Group 5, Day 9", "value": 278.38, "unit": "g"}, {"measurement": "Mean group body weight (% from baseline)", "setting": "50 mg/kg PO, Group 5, Day 9", "value": 123.18, "unit": "%"}, {"measurement": "Mean group body weight", "setting": "50 mg/kg PO, Group 5, Day 11", "value": 286.13, "unit": "g"}, {"measurement": "Mean group body weight (% from baseline)", "setting": "50 mg/kg PO, Group 5, Day 11", "value": 126.60, "unit": "%"}, {"measurement": "Mean group body weight", "setting": "50 mg/kg PO, Group 5, Day 13", "value": 291.38, "unit": "g"}, {"measurement": "Mean group body weight (% from baseline)", "setting": "50 mg/kg PO, Group 5, Day 13", "value": 128.91, "unit": "%"}, {"measurement": "Mean group body weight", "setting": "50 mg/kg PO, Group 5, Day 16", "value": 280.13, "unit": "g"}, {"measurement": "Mean group body weight (% from baseline)", "setting": "50 mg/kg PO, Group 5, Day 16", "value": 123.98, "unit": "%"}, {"measurement": "Mean group body weight", "setting": "50 mg/kg PO, Group 5, Day 20", "value": 273.75, "unit": "g"}, {"measurement": "Mean group body weight (% from baseline)", "setting": "50 mg/kg PO, Group 5, Day 20", "value": 121.18, "unit": "%"}, {"measurement": "Mean group body weight", "setting": "50 mg/kg PO, Group 5, Day 23", "value": 264.29, "unit": "g"}, {"measurement": "Mean group body weight (% from baseline)", "setting": "50 mg/kg PO, Group 5, Day 23", "value": 116.09, "unit": "%"}, {"measurement": "Mean group body weight", "setting": "50 mg/kg PO, Group 5, Day 26", "value": 266.67, "unit": "g"}, {"measurement": "Mean group body weight (% from baseline)", "setting": "50 mg/kg PO, Group 5, Day 26", "value": 117.29, "unit": "%"}, {"measurement": "Mean group body weight", "setting": "[1]", "value": 222.63, "unit": "g"}, {"measurement": "Mean group body weight (% from baseline)", "setting": "[1]", "value": 100.00, "unit": "%"}, {"measurement": "Mean group body weight", "setting": "100 mg/kg PO, Group 4, Day 1", "value": 235.50, "unit": "g"}, {"measurement": "Mean group body weight (% from baseline)", "setting": "100 mg/kg PO, Group 4, Day 1", "value": 105.77, "unit": "%"}, {"measurement": "Mean group body weight", "setting": "100 mg/kg PO, Group 4, Day 3", "value": 237.63, "unit": "g"}, {"measurement": "Mean group body weight (% from baseline)", "setting": "100 mg/kg PO, Group 4, Day 3", "value": 106.74, "unit": "%"}, {"measurement": "Mean group body weight", "setting": "100 mg/kg PO, Group 4, Day 5", "value": 257.25, "unit": "g"}, {"measurement": "Mean group body weight (% from baseline)", "setting": "100 mg/kg PO, Group 4, Day 5", "value": 115.56, "unit": "%"}, {"measurement": "Mean group body weight", "setting": "100 mg/kg PO, Group 4, Day 7", "value": 267.25, "unit": "g"}, {"measurement": "Mean group body weight (% from baseline)", "setting": "100 mg/kg PO, Group 4, Day 7", "value": 120.04, "unit": "%"}, {"measurement": "Mean group body weight", "setting": "100 mg/kg PO, Group 4, Day 9", "value": 276.50, "unit": "g"}, {"measurement": "Mean group body weight (% from baseline)", "setting": "100 mg/kg PO, Group 4, Day 9", "value": 124.20, "unit": "%"}, {"measurement": "Mean group body weight", "setting": "100 mg/kg PO, Group 4, Day 11", "value": 285.00, "unit": "g"}, {"measurement": "Mean group body weight (% from baseline)", "setting": "100 mg/kg PO, Group 4, Day 11", "value": 128.01, "unit": "%"}, {"measurement": "Mean group body weight", "setting": "100 mg/kg PO, Group 4, Day 13", "value": 288.75, "unit": "g"}, {"measurement": "Mean group body weight (% from baseline)", "setting": "100 mg/kg PO, Group 4, Day 13", "value": 129.71, "unit": "%"}, {"measurement": "Mean group body weight", "setting": "100 mg/kg PO, Group 4, Day 16", "value": 284.75, "unit": "g"}, {"measurement": "Mean group body weight (% from baseline)", "setting": "100 mg/kg PO, Group 4, Day 16", "value": 127.91, "unit": "%"}, {"measurement": "Mean group body weight", "setting": "100 mg/kg PO, Group 4, Day 20", "value": 266.63, "unit": "g"}, {"measurement": "Mean group body weight (% from baseline)", "setting": "100 mg/kg PO, Group 4, Day 20", "value": 119.75, "unit": "%"}, {"measurement": "Mean group body weight", "setting": "100 mg/kg PO, Group 4, Day 23", "value": 249.00, "unit": "g"}, {"measurement": "Mean group body weight (% from baseline)", "setting": "100 mg/kg PO, Group 4, Day 23", "value": 111.34, "unit": "%"}, {"measurement": "Mean group body weight", "setting": "100 mg/kg PO, Group 4, Day 26", "value": 234.00, "unit": "g"}, {"measurement": "Mean group body weight (% from baseline)", "setting": "100 mg/kg PO, Group 4, Day 26", "value": 106.04, "unit": "%"}]}]}
